Test results taken from US10986834B2, “Peptide-containing composition and stabilizer, stabilizing method, and storage method for peptide” (KANEKA CORPORATION, priority 2016, dated 2021).

conditions: 1% by mass in distilled water at 25° C.
Method: Potassium sulfate, dipotassium hydrogen phosphate, and potassium bicarbonate components were each dissolved in distilled water at 25° C. to be a concentration of 1% by mass and stirred sufficiently.

pH	Structure (SMILES)
8.3	O=C([O-])O.[K+] [Potassium bicarbonate]
3.3	O=S(=O)([O-])[O-].[K+].[K+] [Potassium sulfate]

Structure (SMILES)	pH
O=P([O-])([O-])O.[K+].[K+] [Dipotassium hydrogen phosphate]	9.0
